Target: T1, EntE (Escherichia coli, UniProt P10378)
T1 sequence (P10378 1-536): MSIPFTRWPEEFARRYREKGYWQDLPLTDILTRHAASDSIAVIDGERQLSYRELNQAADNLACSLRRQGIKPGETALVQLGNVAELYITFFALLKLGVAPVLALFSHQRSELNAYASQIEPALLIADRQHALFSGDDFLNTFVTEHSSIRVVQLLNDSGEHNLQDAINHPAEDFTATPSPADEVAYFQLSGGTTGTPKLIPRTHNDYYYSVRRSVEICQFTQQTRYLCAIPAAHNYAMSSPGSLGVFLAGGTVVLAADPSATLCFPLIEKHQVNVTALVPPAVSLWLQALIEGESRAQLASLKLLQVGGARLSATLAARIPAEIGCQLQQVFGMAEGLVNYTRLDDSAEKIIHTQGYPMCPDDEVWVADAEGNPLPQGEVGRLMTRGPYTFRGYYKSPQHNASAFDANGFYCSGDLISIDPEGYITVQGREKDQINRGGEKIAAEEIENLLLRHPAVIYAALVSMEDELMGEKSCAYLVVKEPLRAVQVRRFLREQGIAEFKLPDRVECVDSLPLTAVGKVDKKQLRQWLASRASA
Test: enzyme inhibition kinetics versus ATP
Type: biochemical

For `Nc1ncnc2c1ncn2[C@@H]1O[C@H](COP(=O)(O)OP(=O)(O)OP(=O)(O)OP(=O)(O)OC[C@H]2O[C@@H](n3cnc4c(N)ncnc43)[C@H](O)[C@@H]2O)[C@@H](O)[C@H]1O` [Ap4A, P^1, P^3-diadenosine-5′-tetraphosphate], the Ki was 1200 ± 100 nM.

From PMC2783875 (Biochemistry, 2009)
